Results on 16 compounds are retold here after article PMC6441007, “Semi-solid prodrug nanoparticles for long-acting delivery of water-soluble antiretroviral drugs within combination HIV therapies” (Nature Communications, 2019).

Values after ≈ are worked out from the molar mass of the structure shown. Like-named read-outs stand apart in the source and are kept apart here.

For data set [1] the following is noted: IVIVE model input parameter (Supplementary Table 4); source not given; cited from earlier work.
The conditions of data set [2]: cited from earlier work.
The conditions of data set [3]: 25 °C; cited from earlier work.
The test system of another data set is viral replication. The conditions noted are these: plasma concentration; cited from earlier work.
Data set [4] concerns human immunodeficiency virus type 1 reverse transcriptase. The conditions noted are these: intracellular FTC-TP; cited from earlier work.
A short description of data set [5]: Prodrug hydrolysis in undiluted human plasma (HPLC, half-life). It counts as in vitro ADME. The conditions noted are these: 1 mM, 37 °C. How it is done:
(§1) As expected, rapid enzyme-catalysed hydrolysis of the 5’-carbonate group of 1–8 was observed, evident from the short plasma half-lives (<12 h) and relatively rapid initial hydrolysis rates in liver S9 and muscle S9 fractions (evaluated over a timeframe in which the carbamate masking group remains intact). […] Although chemically similar to capecitabine at the carbamate moiety, the plasma half-lives of longer-chain carbamates 12–16 were generally shorter. Initial hydrolysis rates in liver and muscle S9 fractions were within a sixfold range of capecitabine as measured in our hands, with the longer C5 to C8 analogues (13–16) undergoing hydrolysis most efficiently in liver S9 (Supplementary Figure 21). […] In all cases, the hydrolysis of the carbonate moiety of 1–8 was considerably faster in liver than muscle.
Reaction mixtures containing pooled mixed gender human plasma (Bioreclamation) were pre-incubated at 37 °C for 5 min. Reactions were initiated by the addition of prodrugs 1–8 (1 mM + 5% DMSO). […] The supernatant was diluted 10-fold into phosphate buffer (0.1 M, pH 7.4) and analysed by HPLC method described within Supplementary Information (monitoring starting material depletion at 305 nm). […]
323 buffer (0.1 M, pH 7.4) and analyzed by the HPLC method described above monitoring […]

A short description of data set [6]: Initial rate of prodrug hydrolysis in human liver S9 (HPLC). Type of data set: in vitro ADME. The following applies: for Hydrolysis liver: IVIVE model input, determined experimentally. How it is done:
as §1
(§2) Reaction mixtures containing mixed gender human skeletal muscle S9 (10.47 mg mL^−1, Bioreclamation) or phosphate buffer (0.1 M, pH 7.4) and pooled, mixed gender liver S9 (2.0 mg mL^−1, Xenotech) were pre-incubated at 37 °C for 5 min. Reactions were initiated by the addition of prodrugs 1–8 (1 mM + 5% DMSO). After incubation at 37 °C, aliquots were taken at time points measuring initial rate (Muscle S9: 1–3: 0.5, 10, 20, 30, 40, 50, and 60 min; 4: 0.5, 20, 40, 60, 80, 100, and 120 min; 5–6: 0.5, 30, 60, 90, 150, and 180 min; 7–8: 0.5 min, 30 min, 1 h, 3 h, 4 h, 5 h) (Liver S9: 1–2: 0.5, 1, 2, 3, 4, and 5 min; 3–6: 0.5, 2, 4, 6, 8, and 10 min; 7–8: 0.5, 5, 10, 15, 20, 25, 30, and 60 min). These aliquots were quenched in two volumes of ice-cold methanol. The quenched aliquots were then centrifuged at 16,873 × g for 5 min. The supernatant was diluted 10-fold into phosphate buffer (0.1 M, pH 7.4) and analysed by HPLC method described within Supplementary Information (monitoring starting material depletion at 305 nm). […]

A short description of data set [7]: Initial rate of prodrug hydrolysis in human skeletal muscle S9 (HPLC). Type of data set: in vitro ADME. The conditions noted are these: for Hydrolysis muscle: IVIVE model input, determined experimentally. As for the experimental part: as §1, §2
The mark [8] stands for this setting: oral 400mg FTC, human clinical data, mean (minimum-maximum).
The mark [9] stands for this setting: oral FTC at steady state, average of 3 independent clinical studies, mean (± SD), ref Supplementary References 3-5.

Consider `Nc1nc(=O)n([C@@H]2CS[C@H](CO)O2)cc1F` [FTC, emtricitabine], for which the “Plasma Cl” value in [1] is reported as 19.35 L/h. In data set [2] (setting [8]), the “AUC, observed” value was 16484 (11524-21388) ng/h/mL; the “Cmax, observed” value is 2968 (1582-4165) ng/mL; the “Cmin, observed” value is 63 (48-134) ng/mL. For the same compound, in [2] (setting [9]), the “AUC, observed” value is 9100 (± 1646) ng/h/mL; the “Cmax, observed” value was 1773 (± 46.1) ng/mL; the “Cmin, observed” value is 67 (± 25) ng/mL. The water solubility in data set [3] was 112 mg/mL (≈ 453 mM). The “concentration inhibiting 90% of viral replication (IC90)” value in the data set with viral replication is 50 ng/mL.
Turning to `Nc1nc(=O)n([C@@H]2CS[C@H](COP(=O)(O)OP(=O)(O)OP(=O)(O)O)O2)cc1F` [FTC-TP, FTC triphosphate], the “intracellular half-maximal inhibitory concentration (IC50)” value in data set [4] is 150 fmol per 10^6 cells.
`COC(=O)Nc1nc(=O)n([C@@H]2CS[C@H](COC(=O)OC)O2)cc1F` [prodrug 1, Methyl (5-fluoro-1-((2R,5S)-2-(((methoxycarbonyl)oxy)methyl)-1,3-oxathiolan-5-yl)-2-oxo-1,2-dihydropyrimidin-4-yl)carbamate]: the melting point fell in the range of 97 to 103 °C.
Regarding `CCOC(=O)Nc1nc(=O)n([C@@H]2CS[C@H](COC(=O)OCC)O2)cc1F` [prodrug 2, Ethyl (1-((2R,5S)-2-(((ethoxycarbonyl)oxy)methyl)-1,3-oxathiolan-5-yl)-5-fluoro-2-oxo-1,2-dihydropyrimidin-4-yl)carbamate], the “plasma half-life (hydrolysis of 5'-carbonate moiety)” value in data set [5] is reported as “shortest”.
For the compound `CCCOC(=O)Nc1nc(=O)n([C@@H]2CS[C@H](COC(=O)OCCC)O2)cc1F` [prodrug 3, Propyl (5-fluoro-2-oxo-1-((2R,5S)-2-(((propoxycarbonyl)oxy)methyl)-1,3-oxathiolan-5-yl)-1,2-dihydropyrimidin-4-yl)carbamate], the melting point was 102 to 107 °C. Further, in data set [5], the “plasma half-life (hydrolysis of 5'-carbonate moiety)” value is recorded as “shortest”. For the same compound, the “5'-carbonate hydrolysis rate in liver S9” value in data set [6] (1 mM, 37 °C, across series 1-8) is given as “maximum”. The “5'-carbonate hydrolysis rate in muscle S9” value in data set [7] (1 mM, 37 °C, across series 1-8) was “maximum”.
For the compound `CCCCOC(=O)Nc1nc(=O)n([C@@H]2CS[C@H](COC(=O)OCCCC)O2)cc1F` [prodrug 4, Butyl (1-((2R,5S)-2-(((butoxycarbonyl)oxy)methyl)-1,3-oxathiolan-5-yl)-5-fluoro-2-oxo-1,2-dihydropyrimidin-4-yl)carbamate], in data set [6], the Hydrolysis liver stood at 0.5786 h⁻¹. The Hydrolysis muscle in [7] turned out to be 0.0290 h⁻¹.
In turn, `CCCCCOC(=O)Nc1nc(=O)n([C@@H]2CS[C@H](COC(=O)OCCCCC)O2)cc1F` [prodrug 5, Pentyl (5-fluoro-2-oxo-1-((2R,5S)-2-((((pentyloxy)carbonyl)oxy)methyl)-1,3-oxathiolan-5-yl)-1,2-dihydropyrimidin-4-yl)carbamate] had a melting point of 103 to 106 °C.
Regarding `CCCCCCOC(=O)Nc1nc(=O)n([C@@H]2CS[C@H](COC(=O)OCCCCCC)O2)cc1F` [prodrug 6, Hexyl (5-fluoro-1-((2R,5S)-2-((((hexyloxy)carbonyl)oxy)methyl)-1,3-oxathiolan-5-yl)-2-oxo-1,2-dihydropyrimidin-4-yl)carbamate], the melting point turned out to be 110 °C.
For `CCCCCCCCOC(=O)Nc1nc(=O)n([C@@H]2CS[C@H](COC(=O)OCCCCCCCC)O2)cc1F` [prodrug 8, Octyl (5-fluoro-1-((2R,5S)-2-((((octyloxy)carbonyl)oxy)methyl)-1,3-oxathiolan-5-yl)-2-oxo-1,2-dihydropyrimidin-4-yl)carbamate], the Hydrolysis liver in data set [6] is 0.0694 h⁻¹. The Hydrolysis muscle in data set [7] worked out at 0.0067 h⁻¹.
In turn, `COC(=O)Nc1nc(=O)n([C@@H]2CS[C@H](CO)O2)cc1F` [prodrug 9, Methyl (5-fluoro-1-((2R,5S)-2-(hydroxymethyl)-1,3-oxathiolan-5-yl)-2-oxo-1,2-dihydropyrimidin-4-yl)carbamate] yielded a melting point of 85 to 89 °C.
Still for that read-out and setting: to `CCCOC(=O)Nc1nc(=O)n([C@@H]2CS[C@H](CO)O2)cc1F` [prodrug 11, Propyl (5-fluoro-1-((2R,5S)-2-(hydroxymethyl)-1,3-oxathiolan-5-yl)-2-oxo-1,2-dihydropyrimidin-4-yl)carbamate] belongs 82 to 86 °C.
Compound `CCCCOC(=O)Nc1nc(=O)n([C@@H]2CS[C@H](CO)O2)cc1F` [prodrug 12, Butyl (5-fluoro-1-((2R,5S)-2-(hydroxymethyl)-1,3-oxathiolan-5-yl)-2-oxo-1,2-dihydropyrimidin-4-yl)carbamate] showed a melting point of 47 °C. Besides, in data set [6], the Hydrolysis liver came to 0.0125 h⁻¹. In addition, in data set [7], the Hydrolysis muscle was determined as 0.001 h⁻¹.
For the compound `CCCCCOC(=O)Nc1nc(=O)n([C@@H]2CS[C@H](CO)O2)cc1F` [prodrug 13, Pentyl (5-fluoro-1-((2R,5S)-2-(hydroxymethyl)-1,3-oxathiolan-5-yl)-2-oxo-1,2-dihydropyrimidin-4-yl)carbamate], the melting point fell in the range of 44 to 47 °C.
Still for that read-out and setting: to `CCCCCCOC(=O)Nc1nc(=O)n([C@@H]2CS[C@H](CO)O2)cc1F` [prodrug 14, Hexyl (5-fluoro-1-((2R,5S)-2-(hydroxymethyl)-1,3-oxathiolan-5-yl)-2-oxo-1,2-dihydropyrimidin-4-yl)carbamate] belongs 46 to 49 °C; to `CCCCCCCOC(=O)Nc1nc(=O)n([C@@H]2CS[C@H](CO)O2)cc1F` [prodrug 15, Heptyl (5-fluoro-1-((2R,5S)-2-(hydroxymethyl)-1,3-oxathiolan-5-yl)-2-oxo-1,2-dihydropyrimidin-4-yl)carbamate], 46 °C.
As to `CCCCCCCCOC(=O)Nc1nc(=O)n([C@@H]2CS[C@H](CO)O2)cc1F` [prodrug 16, Octyl (5-fluoro-1-((2R,5S)-2-(hydroxymethyl)-1,3-oxathiolan-5-yl)-2-oxo-1,2-dihydropyrimidin-4-yl)carbamate], in data set [6], the Hydrolysis liver was found to be 0.0282 h⁻¹. Moreover, in [7], the Hydrolysis muscle was determined as 0.004 h⁻¹.

The term melting point denotes the temperature of the solid-liquid transition.
